US20260240842A1, “METHODS TO PREVENT THERAPY RESISTANCE IN MELANOMA VIA BLOCKING GENOMIC INSTABILITY” (THE REGENTS OF THE UNIVERSITY OF CALIFORNIA, priority 2022, published 2026)

Tested on: human BRAF^V600MUT (M229, M249, M395) or NRAS^Q61MUT (M202, M207, M245) melanoma cell lines
Experiment: Long-term clonogenic growth: emergence of acquired MAPKi-resistant colonies (DTPPs) in parental melanoma cell lines under MAPKi
Format: cell-based
Conditions: for efficacy of co-treatment during the second half of the MAPKi treatment course: M229 (day 14-28) and M245 (day 15-30); for suppression of resistance with delayed co-treatment: M229 and M245, 3- to 3.5-week delay in co-treatment, FIGS. 4R and 4S; for sensitivity of M249 parental cell line to resistance suppression: M249, FIG. 4D; for prevention of DTPP formation / suppression of acquired MAPKi resistance: in combination with MAPKi (BRAFi+MEKi or MEKi), parental cell lines, FIG. 4
Procedure: FIGS. 4A-4U. DNA-PKi and/or PARPi co-treatment prevents acquired MAPKi-resistance in human melanoma cell lines. FIGS. 4A to 4O: Long-term clonogenic growth of isogenic parental and acquired MAPKi-resistant BRAF^V600MUT (4A to 4H) or NRAS^Q61MUT (4I to 4O) human melanoma cell lines showing acquired-resistant colonies to BRAFi+MEKi (PLX4032 at 0.5 mM, AZD6244 at 0.5 mM in 4A and 4G; PLX4032 at 0.25 mM, AZD6244 at 0.25 mM in 4D; PLX4032 at 1 mM, AZD6244 at 1 mM in 4B, 4C, 4E, 4F and 4H) or MEKi (trametinib at 0.005 mM in I and 0.01 mM in 4J and 4N; trametinib at 0.1 mM in 4K, 4M and 4O) and their suppression by indicated co-treatments with DNA-PKi (NU7026) and/or PARPi (ABT888) at indicated concentrations. Top, representative cultures; bottom, quantifications over n=4 fields (mean±SD). Data representative of 2 to 4 independent repeats. Seeding densities (cells/well in 6-well dishes) and culture durations (days): (4A) 5,000; 31, (4B) 1,000; 17, (4C) 5,000; 18, (4D) 40,000; 40, (4E) 5,000; 14, (4F) 5,000; 12, (4G) 20,000; 30, (4H) 20,000; 21, (4I) 40,000; 30, (4J) 50,000; 31, (4K) 5,000; 17, (4L) 5,000; 22, (4M) 5,000; 16, (4N) 20.000; 16, and (4O) 5,000; 16. Data representative of 2 to 4 independent repeats. FIGS. 4P and 4Q: Western blot, MTT assay (upper), and clonogenic growth assay (lower) of M245 cells transduced by lentivirus harboring shVector control or shRNAs of PRKDC (4P) or LIG4 (4Q). TUBULIN, loading control. Clonogenic growth with vehicle (14 days, 5,000 cells/well in 6-well dishes) or MEKi (29 days, 50,000 cells/well in 6-well dishes) treatments. MEKi, trametinib at 0.01 μM. Representative results of two independent experiments; quantification of n=4 fields (mean±SD). FIGS. 4R and 4S: As in 4A and 4J, respectively, except DNA-PKi and/or PARPi co-treatments were performed in M229 (4R) and M245 (4S) at a later stage of MAPKi treatment (see timepoint schema). Inhibitor concentrations for M229: BRAFi+MEKi (PLX4032 at 0.5 μM, AZD6244 at 0.5 μM), NU7026 (8 μM), ABT888 (4 μM) and NU7026+ABT888 (4 μM+4 μM). Inhibitor concentrations for M245: MEKi (trametinib at 0.01 μM), NU7026 (5 μM), ABT888 (1 μM) and NU7026+ABT888 (5 μM+1 μM). Left, representative cultures; right, quantifications over n=4 fields (mean±SD). Data representative of 2 independent repeats. FIGS. 4T and 4U: As in 4A and 4J, respectively, except DNA-PKi and/or PARPi co-treatments were performed in M229 (4T) and M245 cells (4U) at the same concentrations in R and S for the entire durations (day 1-28 in 4T; day 1-30 in 4U), the first half (day 1-14 in T; day 1-15 in 4U) or the second half (day 14-28 in 4T: day 15-30 in 4U) of the total treatment course. Top, representative cultures; bottom, quantifications over n=4 fields (mean±SD). Data representative of 2 independent repeats. P values (one-way ANOVA followed by Tukey's multiple comparison test) comparing indicated cultures versus MAPKi-only cultures (4A to 4O and 4R to 4U) or shVector culture (4P and 4Q): *, p<0.05; **, p<0.01: ***, p<0.001.
FIGS. 12A-12F. DNA-PKi and/or PARPi co-treatment prevents acquired MAPKi-resistance in human melanoma cell lines. FIGS. 12A to 12F: Long-term clonogenic growth of BRAF^V600MUT (12A, 12C and 12E) or NRAS^Q61MUT (12B, 12D and 12F) cell lines showing acquired-resistant colonies to BRAFi+MEKi (PLX4032 at 0.5 mM, AZD6244 at 0.5 mM for M229 and M395; PLX4032 at 0.25 mM, AZD6244 at 0.25 mM for M249) or MEKi (trametinib at 0.005 mM for M202 and 0.01 mM for M207 and M245) and their suppression by indicated co-treatments with DNA-PKi (VX984 in 12A and 12B; AZD7648 in 12C and 12D) and/or PARPi (olaparib in 12E and 12F) at indicated concentrations. Top, representative cultures; bottom, quantifications over n=4 fields (mean±SD). Data representative of 2 independent repeats. Seeding densities (cells/well in 6-well dishes) and culture durations (days): M202 (40,000, 30), M207 (20,000, 16), M229 (5,000, 32), M245 (50,000, 31), M249 (40,000, 40), and M395 (20,000, 30). […]

Row | Compound | efficacy of co-treatment during the second half of the MAPKi treatment course (FIGS. 4T and 4U) | suppression of resistance with delayed co-treatment | sensitivity of M249 parental cell line to resistance suppression | prevention of DTPP formation / suppression of acquired MAPKi resistance | efficacy of co-treatment during the first half of the MAPKi treatment course (M229 (day 1-14) and M245 (day 1-15), FIGS. 4T and 4U) | prevention of DTPP formation / suppression of acquired MAPKi resistance (listed as DNA-PKi)
1 | C[C@]1(c2nc3c(C(N)=O)cccc3[nH]2)CCCN1 [ABT888, veliparib] | completely lost | reduced the suppression of resistance | highly sensitive to resistance suppression | activity in 3 of 6 parental cell lines |  | 
2 | O=c1cc(N2CCOCC2)oc2c1ccc1ccccc12 [NU7026] | partially remititive | reduced the suppression of resistance | highly sensitive to resistance suppression | synergistically and dose-dependently prevented DTPP formation in all parental cell lines tested | remititive | generally more effective than PARPi in preventing acquired resistance
